US8148373B2, “Compounds” (AstraZeneca AB, priority 2008, dated 2012)
Counter-ions that a name gives are not always drawn.

Experiments:
[1] = biological target: T1, human muscarinic acetylcholine M3 receptor (M3-ACh) (Homo sapiens, UniProt P20309); assay: Muscarinic 3 Receptor Binding Assay ([3H]NMS competition, SPA); details: [3H]NMS 0.1 nM, CHO-K1 cell membranes, 16 hours at room temperature; read-out: M3 pIC50 (converted)
T1 construct: expressed in transfected cells; host or cells: CHO-K1 (Chinese Hamster Ovary) cell membranes
Experimental: Muscarinic 3 Receptor Binding Assay
The affinity (pIC50) of compounds binding to the M3 receptor is determined by competition binding of [^3H]N-methyl scopolamine (NMS) to CHO-K1 (Chinese Hamster Ovary) cell membranes expressing the human muscarinic acetylcholine M3 receptor (M3-ACh) in a scintillation proximity assay (SPA) format.
SPA beads are precoated with membranes and then incubated at 2 mg of beads per well with serial dilutions of compounds of the invention, [^3H]NMS at 0.1 nM, quarter Kd (experimentally determined dissociation constant) and assay buffer (20 mM HEPES pH 7.4 containing 5 mM MgCl2). The assay is conducted in a final volume of 200 μL, in the presence of 1% (v/v) dimethyl sulphoxide (DMSO). Total binding of [^3H]NMS is determined in the absence of competing compound and non-specific binding of [^3H]NMS is determined in the presence of 1 μM atropine. The plates are incubated for 16 hours at room temperature and then read on Wallac Microbeta™ using a normalised ^3H protocol. The pIC50, defined as the negative logarithm of the molar concentration of compound required for 50% reduction in specific [^3H]-NMS binding, is determined.

[2] = biological target: T2, Adrenergic β2 (H292 cells) (Homo sapiens, UniProt P07550); assay: Assay for Adrenergic β2 Mediated cAMP Production (concentration response, AlphaScreen cAMP detection); format: cell-based; details: for EC50: cAMP production, 60 minutes at room temperature, 300 μM rolipram, read-out: β2 pEC50 (converted); for β2 Intrinsic activity: fraction relative to the maximum activity determined for formoterol
T2 construct: endogenous in cells; host or cells: H292 cells
Experimental: Assay for Adrenergic β2 Mediated Camp Production
H292 cells are grown in 225 cm2 flasks incubator at 37° C., 5% CO2 in RPMI medium containing 10% (v/v) FBS (foetal bovine serum) and 2 mM L-glutamine.
Adherent H292 cells are removed from tissue culture flasks by treatment with Accutase™ cell detachment solution for 15 minutes. Flasks are incubated for 15 minutes in a humidified incubator at 37° C., 5% CO2. Detached cells are re-suspended in RPMI media (containing 10% (v/v) FBS and 2 mM L-glutamine) at 0.1×10^6 cells per mL. 10000 cells in 100 μL are added to each well of a tissue-culture-treated 96-well plate and the cells incubated overnight in a humidified incubator at 37° C., 5% CO2. The culture media is removed and cells are washed twice with 100 μL assay buffer and replaced with 50 μL assay buffer (HBSS solution containing 10 mM HEPES pH7.4 and 5 mM glucose). Cells are rested at room temperature for 20 minutes after which time 25 μL of rolipram (1.2 mM made up in assay buffer containing 2.4% (v/v) dimethylsulphoxide) is added. Cells are incubated with rolipram for 10 minutes after which time test compounds are added and the cells are incubated for 60 minutes at room temperature. The final rolipram concentration in the assay is 300 μM and final vehicle concentration is 1% (v/v) dimethylsulphoxide. The reaction is stopped by removing supernatants, washing once with 100 μL assay buffer and replacing with 50 μL lysis buffer. The cell monolayer is frozen at −80° C. for 30 minutes (or overnight).
AlphaScreen™ cAMP Detection
The concentration of cAMP (cyclic adenosine monophosphate) in the cell lysate is determined using AlphaScreen™ methodology. The frozen cell plate is thawed for 20 minutes on a plate shaker then 10 μL of the cell lysate is transferred to a 96-well white plate. 40 μL of mixed AlphaScreen™ detection beads pre-incubated with biotinylated cAMP, is added to each well and the plate incubated at room temperature for 3 hours in the dark. The AlphaScreen™ signal is measured using an EnVision spectrophotometer (Perkin-Elmer Inc.) with the recommended manufacturer's settings. cAMP concentrations are determined by reference to a calibration curve determined in the same experiment using standard cAMP concentrations. Concentration response curves for agonists are constructed and data is fitted to a four parameter logistic equation to determine both the pEC50 and Intrinsic Activity. Intrinsic Activity is expressed as a fraction relative to the maximum activity determined for formoterol in each experiment.

T1 sequence (P20309 whole entry): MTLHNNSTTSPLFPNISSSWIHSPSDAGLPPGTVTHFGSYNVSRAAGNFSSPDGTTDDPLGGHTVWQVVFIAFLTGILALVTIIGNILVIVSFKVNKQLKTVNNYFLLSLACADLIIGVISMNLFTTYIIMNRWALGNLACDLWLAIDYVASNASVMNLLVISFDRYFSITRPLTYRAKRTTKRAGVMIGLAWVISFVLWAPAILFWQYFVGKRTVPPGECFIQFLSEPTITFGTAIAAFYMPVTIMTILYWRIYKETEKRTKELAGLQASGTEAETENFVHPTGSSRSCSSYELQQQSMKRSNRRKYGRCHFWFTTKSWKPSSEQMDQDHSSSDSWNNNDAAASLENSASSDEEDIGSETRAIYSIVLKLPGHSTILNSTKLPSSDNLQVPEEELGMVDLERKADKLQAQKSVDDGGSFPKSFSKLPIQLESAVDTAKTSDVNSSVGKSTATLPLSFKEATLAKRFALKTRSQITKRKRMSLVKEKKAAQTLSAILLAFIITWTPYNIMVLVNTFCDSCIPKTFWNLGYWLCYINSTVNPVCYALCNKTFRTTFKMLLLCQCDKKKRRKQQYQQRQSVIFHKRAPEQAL
T2 sequence (P07550 whole entry): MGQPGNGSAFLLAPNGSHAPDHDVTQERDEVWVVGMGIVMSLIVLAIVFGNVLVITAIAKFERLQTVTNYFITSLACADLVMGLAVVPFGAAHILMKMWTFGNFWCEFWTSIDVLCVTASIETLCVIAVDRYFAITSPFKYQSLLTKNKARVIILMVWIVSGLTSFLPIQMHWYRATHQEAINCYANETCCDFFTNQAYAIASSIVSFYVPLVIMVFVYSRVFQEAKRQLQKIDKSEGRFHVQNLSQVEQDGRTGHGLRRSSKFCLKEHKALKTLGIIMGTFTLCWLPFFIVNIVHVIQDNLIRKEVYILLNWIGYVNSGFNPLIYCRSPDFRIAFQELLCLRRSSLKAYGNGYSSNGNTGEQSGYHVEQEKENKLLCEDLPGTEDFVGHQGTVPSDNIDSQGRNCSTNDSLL

| IC50 [1] [nM] | EC50 [2] [nM] | β2 Intrinsic activity [2] | Compound |
| --- | --- | --- | --- |
| 2.51 | 10 | 1 | Cc1nc(C(=O)N2CCOC3(CCN(Cc4cc(F)cc(CCNC[C@H](O)c5ccc(O)c6[nH]c(=O)ccc56)c4)CC3)C2)cs1 [Example 28, (R)-5-(2-(3-Fluoro-5-((4-(2-methylthiazole-4-carbonyl)-1-oxa-4,9-diazaspiro[5.5]undecan-9-yl)methyl)phenethylamino)-1-hydroxyethyl)-8-hydroxyquinolin-2(1H)-one ditrifluoroacetate] |
| 0.398 | 3.98 | 0.9 | CC(C)c1cc(C(=O)N2CCOC3(CCN(Cc4cccc(CCNC[C@H](O)c5ccc(O)c6[nH]c(=O)sc56)c4)CC3)C2)cs1 [Example 82, (R)-4-Hydroxy-7-(1-hydroxy-2-(3-((4-(5-isopropylthiophene-3-carbonyl)-1-oxa-4,9-diazaspiro[5.5]undecan-9-yl)methyl)phenethylamino)ethyl)benzo[d]thiazol-2(3H)-one ditrifluoroacetate] |
| 0.501 | 3.16 | 0.9 | CCCc1nc(C(=O)N2CCOC3(CCN(Cc4cccc(CCNC[C@H](O)c5ccc(O)c6[nH]c(=O)sc56)c4)CC3)C2)cs1 [Example 87, (R)-4-Hydroxy-7-(1-hydroxy-2-(3-((4-(2-propylthiazole-4-carbonyl)-1-oxa-4,9-diazaspiro[5.5]undecan-9-yl)methyl)phenethylamino)ethyl)benzo[d]thiazol-2(3H)-one ditrifluoroacetate] |
| 0.126 | 10 | 0.9 | CC(C)c1nc(C(=O)N2CCOC3(CCN(Cc4cccc(CCNC[C@H](O)c5ccc(O)c6[nH]c(=O)sc56)c4)CC3)C2)cs1 [Example 22, (R)-4-Hydroxy-7-O-hydroxy-2-(3-((4-(2-isopropylthiazole-4-carbonyl)-1-oxa-4,9-diazaspiro[5.5]undecan-9-yl)methyl)phenethylamino)ethyl)benzo[d]thiazol-2(3H)-one ditrifluoroacetate] |
| 0.126 | 15.8 | 0.8 | Cc1cc(C(=O)N2CCOC3(CCN(CCCCCCCCCNC[C@H](O)c4ccc(O)c5[nH]c(=O)sc45)CC3)C2)cs1 [Example 105, (R)-4-Hydroxy-7-(1-hydroxy-2-(9-(4-(5-methylthiophene-3-carbonyl)-1-oxa-4,9-diazaspiro[5.5]undecan-9-yl)nonylamino)ethyl)benzo[d]thiazol-2(3H)-one formate] |
| 25.1 | 6.31 | 0.8 | O=C(c1ccc2sccc2c1)N1CCOC2(CCN(Cc3cccc(CCNC[C@H](O)c4ccc(O)c5[nH]c(=O)sc45)c3F)CC2)C1 [Example 68, (R)-7-(2-(3-((4-(Benzo[b]thiophene-5-carbonyl)-1-oxa-4,9-diazaspiro[5.5]undecan-9-yl)methyl)-2-fluorophenethylamino)-1-hydroxyethyl)-4-hydroxybenzo[d]thiazol-2(3H)-one ditrifluoroacetate] |
| 0.1 | 31.6 | 0.9 | Cc1nc(C(=O)N2CCOC3(CCN(Cc4cccc(CCOCCC(=O)N(CCNC[C@H](O)c5ccc(O)c6[nH]c(=O)sc56)C5CCCCC5)c4)CC3)C2)cs1 [Example 277, (R)—N-Cyclohexyl-N-(2-(2-hydroxy-2-(4-hydroxy-2-oxo-2,3-dihydrobenzo[d]thiazol-7-yl)ethylamino)ethyl)-3-(3-((4-(2-methylthiazole-4-carbonyl)-1-oxa-4,9-diazaspiro[5.5]undecan-9-yl)methyl)phenylethoxy)propanamide ditrifluoroacetate] |
| 20 | 3.16 | 1 | Cc1ccc(C(=O)N2CCOC3(CCN(Cc4ccc(F)c(CCNC[C@H](O)c5ccc(O)c6[nH]c(=O)sc56)c4F)CC3)C2)s1 [Example 34, (R)-7-(2-(2,6-Difluoro-3-((4-(5-methylthiophene-2-carbonyl)-1-oxa-4,9-diazaspiro[5.5]undecan-9-yl)methyl)phenethylamino)-1-hydroxyethyl)-4-hydroxybenzo[d]thiazol-2(3H)-one ditrifluoroacetate] |
| 0.794 | 6.31 | 1.1 | O=C(c1csc(C2CC2)n1)N1CCOC2(CCN(Cc3cc(F)cc(CCNC[C@H](O)c4ccc(O)c5[nH]c(=O)sc45)c3)CC2)C1 [Example 57, (R)-7-(2-(3-((4-(2-Cyclopropylthiazole-4-carbonyl)-1-oxa-4,9-diazaspiro[5.5]undecan-9-yl)methyl)-5-fluorophenethylamino)-1-hydroxyethyl)-4-hydroxybenzo[d]thiazol-2(3H)-one ditrifluoroacetate] |
| 20 | 63.1 | 0.8 | Cc1ccc(C(=O)N2CCOC3(CCN(CCOc4ccc(CNC[C@H](O)c5ccc(O)c6[nH]c(=O)sc56)cc4)CC3)C2)s1 [Example 110, (R)-4-Hydroxy-7-(1-hydroxy-2-(4-(2-(4-(5-methylthiophene-2-carbonyl)-1-oxa-4,9-diazaspiro[5.5]undecan-9-yl)ethoxy)benzylamino)ethyl)benzo[d]thiazol-2(3H)-one formate] |
| 6.31 | 7.94 | 0.7 | CC(C)c1nc(C(=O)N2CCOC3(CCN(Cc4cccc(CCNC[C@H](O)c5ccc(O)c6[nH]c(=O)ccc56)c4Cl)CC3)C2)cs1 [Example 81, (R)-5-(2-(2-Chloro-3-((4-(2-isopropylthiazole-4-carbonyl)-1-oxa-4,9-diazaspiro[5.5]undecan-9-yl)methyl)phenethylamino)-1-hydroxyethyl)-8-hydroxyquinolin-2(1H)-one ditrifluoroacetate] |
| 0.251 | 15.8 | 0.9 | CC(C)c1nc(C(=O)N2CCOC3(CCN(Cc4cccc(CCNC[C@H](O)c5ccc(O)c6[nH]c(=O)ccc56)c4)CC3)C2)cs1 [Example 23, (R)-8-Hydroxy-5-(1-hydroxy-2-(3-((4-(2-isopropylthiazole-4-carbonyl)-1-oxa-4,9-diazaspiro[5.5]undecan-9-yl)methyl)phenethylamino)ethyl)quinolin-2(1H)-one ditrifluoroacetate] |
| 0.501 | 15.8 | 0.9 | CC(C)c1nc(C(=O)N2CCOC3(CCN(Cc4ccc(F)c(CCNC[C@H](O)c5ccc(O)c6[nH]c(=O)sc56)c4)CC3)C2)cs1 [Example 47, (R)-7-(2-(2-Fluoro-5-((4-(2-isopropylthiazole-4-carbonyl)-1-oxa-4,9-diazaspiro[5.5]undecan-9-yl)methyl)phenethylamino)-1-hydroxyethyl)-4-hydroxybenzo[d]thiazol-2(3H)-one ditrifluoroacetate] |
| 2.51 | 2.51 | 0.8 | CCc1cc(C(=O)N2CCOC3(CCN(Cc4cc(F)cc(CCNC[C@H](O)c5ccc(O)c6[nH]c(=O)sc56)c4)CC3)C2)cs1 [Example 93, (R)-7-(2-(3-((4-(5-Ethylthiophene-3-carbonyl)-1-oxa-4,9-diazaspiro[5.5]undecan-9-yl)methyl)-5-fluorophenethylamino)-1-hydroxyethyl)-4-hydroxybenzo[d]thiazol-2(3H)-one ditrifluoroacetate] |
